Measurements: paper PMC4368516 (PLoS Neglected Tropical Diseases, 2015)
Counter-ions that a name gives are not always drawn. Like-named read-outs stand apart in the source and are kept apart here.

How the values were obtained:
Human D1 = molecular target: T1, Human D1 (Homo sapiens, UniProt P21728); assay: Inhibition of dopamine-stimulated cAMP response (HTRF) in HEK293 cells expressing human D1; assay type: cell-based
T1 construct: expressed in transfected cells

[1] = tested on: C. quinquefasciatus larvae; details: for LT50, Cq: at 400 μM; for earliest time debilitated larvae observed after exposure, C. quinquefasciatus: 400 μM; for larval mortality, C. quinquefasciatus, within the first 24 h: 24 h post exposure (S3 Fig)
Ae. aegypti larvae [2] = details: for LT50, Aa: at 400 μM
AaDOP2 [3] = molecular target: T2, AaDOP2 (Aedes aegypti, UniProt H6D5H2); assay: cell-based
T2 sequence (H6D5H2 1-476): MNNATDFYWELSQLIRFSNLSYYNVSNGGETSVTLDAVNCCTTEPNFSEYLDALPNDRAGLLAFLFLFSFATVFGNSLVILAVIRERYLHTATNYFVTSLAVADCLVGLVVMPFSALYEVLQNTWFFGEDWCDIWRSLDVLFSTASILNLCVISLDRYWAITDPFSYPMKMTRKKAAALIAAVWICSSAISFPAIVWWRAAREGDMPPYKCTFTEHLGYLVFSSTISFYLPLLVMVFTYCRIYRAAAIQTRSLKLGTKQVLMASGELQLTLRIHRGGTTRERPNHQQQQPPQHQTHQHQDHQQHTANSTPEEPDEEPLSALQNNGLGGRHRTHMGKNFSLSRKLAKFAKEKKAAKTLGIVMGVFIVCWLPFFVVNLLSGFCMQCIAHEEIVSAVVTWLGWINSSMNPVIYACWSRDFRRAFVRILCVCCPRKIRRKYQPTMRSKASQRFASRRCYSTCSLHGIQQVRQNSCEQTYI

CqDOP2 [4] = molecular target: T3, CqDOP2 (Culex quinquefasciatus, UniProt A0A0B5H0X6); assay: cell-based
[5] = tested on: C. quinquefasciatus larvae; assay: whole plant or invertebrate; details: Culex quinquefasciatus, 72 h, read-out: LC50, Cq
Ae. aegypti larvae [6] = assay: whole plant or invertebrate; details: Aedes aegypti, 72 h, read-out: LC50, Aa
CqDOP2 [7] = molecular target: T3, CqDOP2; assay: HTRF cAMP accumulation assay, agonist response of CqDOP2 stably expressed in HEK293 cells; assay type: cell-based; details: for EC50 fold higher than that of dopamine, CqDOP2: cAMP response
AaDOP2 [8] = molecular target: T2, AaDOP2; details: cAMP response
AaDOP2 [9] = molecular target: T2, AaDOP2; assay: cell-based; remark: listed apart in the source
AmDOP2 = details: ref [19]; cited from earlier work
CqDOP2 [10] = molecular target: T3, CqDOP2; details: read-out: IC50 for inhibition of dopamine-stimulated cAMP response, CqDOP2; HEK293 cells; dopamine 3 μM; ±SEM
[11] = read-out: IC50 for inhibition of dopamine-stimulated cAMP response, Human D1

T3 sequence (A0A0B5H0X6 entry or part of it): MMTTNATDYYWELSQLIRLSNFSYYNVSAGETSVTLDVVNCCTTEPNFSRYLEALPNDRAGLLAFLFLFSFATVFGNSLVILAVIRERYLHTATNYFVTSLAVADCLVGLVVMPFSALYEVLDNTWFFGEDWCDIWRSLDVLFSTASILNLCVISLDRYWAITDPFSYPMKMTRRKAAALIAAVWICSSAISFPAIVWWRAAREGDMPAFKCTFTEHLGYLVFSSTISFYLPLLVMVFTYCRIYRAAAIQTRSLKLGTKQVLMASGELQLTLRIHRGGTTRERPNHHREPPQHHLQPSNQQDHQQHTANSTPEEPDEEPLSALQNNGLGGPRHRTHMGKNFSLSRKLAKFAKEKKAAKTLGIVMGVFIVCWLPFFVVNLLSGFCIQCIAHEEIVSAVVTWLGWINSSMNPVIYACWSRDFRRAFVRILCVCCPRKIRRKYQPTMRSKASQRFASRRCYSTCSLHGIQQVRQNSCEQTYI
T1 sequence (P21728 whole entry): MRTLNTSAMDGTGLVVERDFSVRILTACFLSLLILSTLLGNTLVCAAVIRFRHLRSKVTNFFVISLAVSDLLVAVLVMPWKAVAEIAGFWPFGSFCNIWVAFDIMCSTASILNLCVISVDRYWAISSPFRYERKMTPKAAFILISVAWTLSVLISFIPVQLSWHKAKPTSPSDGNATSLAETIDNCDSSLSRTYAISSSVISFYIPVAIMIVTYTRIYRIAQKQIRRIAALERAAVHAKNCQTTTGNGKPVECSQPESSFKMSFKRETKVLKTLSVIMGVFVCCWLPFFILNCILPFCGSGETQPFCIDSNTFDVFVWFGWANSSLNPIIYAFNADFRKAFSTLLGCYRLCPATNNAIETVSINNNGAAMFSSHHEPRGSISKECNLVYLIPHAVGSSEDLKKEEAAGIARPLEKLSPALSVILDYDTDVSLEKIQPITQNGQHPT

Row | IC50 (AaDOP2 [3]) [µM] | IC50 (CqDOP2 [4]) [µM] | Molecule | LT50, Cq ([1]; L3 larvae, ±SEM, n ≥ 3) [h] | LT50, Aa (Ae. aegypti larvae [2]; L3 larvae, ±SEM, n ≥ 3) [h] | LC50 [5] [µM] | LC50 (Ae. aegypti larvae [6]) [µM] | further results
1 | 0.469 ± 0.071 | 0.248 ± 0.042 | CCNC(=O)N1CCN(CCCC(c2ccc(F)cc2)c2ccc(F)cc2)CC1 [Amperozide, amperozide hydrochloride] | 25.4 ± 1.5 | 46.6 ± 6.2 | 135 ± 35 | 161 ± 20 | IC50 (Human D1; [11]): 16.2 ± 4.77 µM
2 | 0.0007 ± 0.0002 | 0.0008 ± 3e-05 | CN1CC2c3ccccc3Oc3ccc(Cl)cc3C2C1 (stereo not shown) [Asenapine, asenapine maleate] | 24.2 ± 1.3 | 36.4 ± 1.6 | 50 ± 10 | 102 ± 22 | IC50 (Human D1; [11]): 0.101 ± 0.002 µM; larval mortality, Ae. aegypti, after 48 h (Ae. aegypti larvae [2]; in vivo): > 70%
3 | – | – | CN(C)CC/C=C1/c2ccccc2Sc2ccc(Cl)cc21 [Chlorprothixene] | 13.9 ± 2.0 | 22.2 ± 3.2 | 41 ± 7 | 62 ± 9 | earliest time debilitated larvae observed after exposure, C. quinquefasciatus [1]: 1 h; larval mortality, C. quinquefasciatus, within the first 24 h [1]: > 70%; larval mortality, Ae. aegypti, after 48 h (Ae. aegypti larvae [2]; 48 h post exposure (S4 Fig)): > 70%; earliest time debilitated larvae observed after exposure, Ae. aegypti (Ae. aegypti larvae [2]; in vivo): 2 h
4 | 0.002 ± 0.0008 | 0.002 ± 0.0005 | OCCN1CCN(CC/C=C2/c3ccccc3Sc3ccc(C(F)(F)F)cc32)CC1 [Cis-(Z)-flupenthixol, cis-(Z)-flupenthixol dihydrochloride] | 35.2 ± 6.1 | 42.6 ± 2.9 | 59 ± 22 | 83 ± 25 | –
5 | – | – | CN(C)CCCN1c2ccccc2CCc2ccc(Cl)cc21 [Clomipramine] | 27.3 ± 3.0 | 28.7 ± 3.1 | 89 ± 19 | 88 ± 24 | –
6 | – | – | CNC[C@H](O)c1ccc(O)c(O)c1 [Epinephrine, (-)-epinephrine bitartrate] | – | – | – | – | EC50 (CqDOP2 [7]): 80.8 ± 21 µM; EC50 fold higher than that of dopamine, CqDOP2 (CqDOP2 [7]): at least 10 fold; EC50 fold higher than that of dopamine, AaDOP2 (AaDOP2 [8]): at least 10 fold; EC50 (AaDOP2 [9]): 41.1 ± 10.5 µM
7 | – | – | CSc1ccc2c(c1)C(N1CCN(C)CC1)Cc1ccccc1S2 (stereo not shown) [Methiothepin] | 15.7 ± 4.9 | 30.6 ± 1.4 | – | – | earliest time debilitated larvae observed after exposure, C. quinquefasciatus [1]: 1 h; larval mortality, C. quinquefasciatus, within the first 24 h [1]: > 70%; LC50 ([1]; read-out: LC50, Cq, L3 larvae, 72 h exposure, ±SEM, n ≥ 3): 44 ± 3 µM; larval mortality, Ae. aegypti, after 48 h (Ae. aegypti larvae [2]; 48 h post exposure (S4 Fig)): > 70%; LC50 (Ae. aegypti larvae [2]; read-out: LC50, Aa, L3 larvae, 72 h exposure, ±SEM, n ≥ 3): 69 ± 12 µM
8 | – | – | CN1CCN2c3ccccc3Cc3ccccc3C2C1 (stereo not shown) [Mianserin] | 17.9 ± 3.0 | 22.8 ± 1.3 | – | – | –
9 | – | – | NC[C@H](O)c1ccc(O)c(O)c1 [Norepinephrine, L (-)-norepinephrine bitartrate] | – | – | – | – | EC50 (CqDOP2 [7]): 52.2 ± 13.8 µM; EC50 fold higher than that of dopamine, CqDOP2 (CqDOP2 [7]): at least 10 fold; EC50 fold higher than that of dopamine, AaDOP2 (AaDOP2 [8]): at least 10 fold; fold more agonist required than dopamine, AmDOP2 (AmDOP2): approximately 25 fold; EC50 (AaDOP2 [9]): 30.3 ± 7.5 µM
10 | 0.709 ± 0.187 | 0.745 ± 0.062 | CN1CCc2cc(Cl)c(O)cc2[C@@H](c2ccccc2)C1 [SCH23390, SCH23390 hydrochloride] | – | – | – | – | –
11 | – | – | (±) butaclamol hydrochloride [(±)-Butaclamol] | – | – | – | – | IC50 (CqDOP2 [10]): 0.172 ± 0.015 µM

Row | Molecule | IC50 (AaDOP2 [3]) [µM] | IC50 (CqDOP2 [4]) [µM] | LT50, Cq ([1]; L3 larvae, ±SEM, n ≥ 3) [h] | LT50, Aa (Ae. aegypti larvae [2]; L3 larvae, ±SEM, n ≥ 3) [h] | LC50 [5] [µM] | LC50 (Ae. aegypti larvae [6]) [µM] | further results
12 | CN(C)CCC=C1c2ccccc2CCc2ccccc21 [Amitriptyline, amitriptyline hydrochloride] | 0.0064 ± 0.002 | 0.0033 ± 0.0004 | 41.7 ± 2.1 | 47.8 ± 6.3 | 165 ± 37 | 208 ± 137 | IC50 (Human D1): 0.69 ± 0.052 µM
13 | CN(C)CCCN1c2ccccc2Sc2ccc(Cl)cc21 [Chlorpromazine, chlorpromazine hydrochloride] | 0.019 ± 0.001 | 0.0074 ± 0.002 | 16.7 ± 1.1 | 26.1 ± 0.9 | 64 ± 9 | 88 ± 9 | earliest time debilitated larvae observed after exposure, C. quinquefasciatus [1]: 1 h; larval mortality, C. quinquefasciatus, within the first 24 h [1]: > 70%; larval mortality, Ae. aegypti, after 48 h (Ae. aegypti larvae [2]; 48 h post exposure (S4 Fig)): > 70%
